Reference: patent US7803769B2 (priority 2006, dated 2010)
“Also recorded” adds a separate entry of the source.

Tests used:
[1] = target: fixed HEK 293 cells stably transfected with human Kv1.3 (Homo sapiens, UniProt P22001); assay: Whole cell immunoassay (ELISA) on fixed HEK 293 cells overexpressing Kv1.3; type: binding
Description: Our peptibody reagent can be a useful and convenient tool for monitoring Kv1.3 channel expression in patients and have utility in diagnostic applications. The procedure shown in FIG. 34A and FIG. 34B follows.
FIG. 34A. A whole cell immunoassay was performed to show binding of intact Fc-L10-ShK[1-35] to Kv1.3 transfected HEK 293 cells (BioFocus plc, Cambridge, UK). Parent HEK 293 cells or HEK Kv1.3 cells were plated at 3×10e4 cells/well in poly-D-Lysine coated ninety-six well plates (#35-4461; Becton-Dickinson, Bedford, Mass.). Cells were fixed with formalin (Sigma HT50-1-1 Formalin solution, diluted 1:1 with PBS/0.5% BSA before use) by removing cell growth medium, adding 0.2 ml/well formalin solution and incubating at room temperature for 25 minutes and then washing one time with 100 μl/well of PBS/0.5% BSA. Wells were blocked by addition of 0.3 ml/well of BSA blocker (50-61-00; KPL 10% BSA Diluent/Blocking Solution, diluted 1:1 with PBS; KPL, Gaithersburg, Md.) followed by incubation at room temperature, with shaking, for 3 hr. Plates were washed 2 times with 1×KP Wash Buffer (50-63-00; KPL). […] Absorbance was read at 450 nm on a Molecular Devices SpectroMax 340 (Sunnyvale, Calif.).
FIG. 34B. […] Absorbances were read at 405 nm after stopping reactions by addition of 0.1 ml/well of 1% SDS.

[2] = tested on: T cell proliferation in human PBMCs; assay: T cell proliferation (3H-thymidine incorporation) in anti-CD3/anti-CD28 stimulated human PBMCs; type: cell-based; conditions: two normal donors
Text: Inhibition of T cell proliferation following anti-CD3 and anti-CD28 antibody stimulation of PBMCs. PBMC's were previously isolated from normal human donor Leukophoresis packs, purified by density gradient centrifugation (Ficoll Hypaque), cryopreserved in CPZ Cryopreservation Medium Complete (INCELL, MCPZF-100 plus 10% DMSO final). PBMC's were thawed (95% viability), washed, and seeded at 2×10^5 cells per well in culture medium (RPMI medium 1640; GIBCO) supplemented with 10% fetal calf serum, 100 U/ml penicillin, […] streptomycin, 2 mM L-glutamine, 100 μM non-essential amino acids, and 20 μM 2-ME) in 96-well flat-bottom tissue culture plates. Cells were pre-incubated with either anti-human CD32 (FcyRII) blocking antibody (per manufacturers instructions EASY SEP Human Biotin Selection Kit #18553, StemCell Technologies Vancouver, BC) or Fc-L10-ShK (100 nM-0.001 nM final) for 45 min. Fc-L10-ShK (100 nM-0.001 nM final) was then added to the cells containing anti-human CD32 blocking antibody while medium was added to the cells containing Fc-L10-ShK. Both sets were incubated for an additional 45 min before stimulating for 48 hr with aCD3/aCD28 (0.2 ng/ml and 100 ng/ml, respectively). Final assay volume was 200 ul. […] Cells were then harvested onto glass fiber filters and radioactivity was measured in a B-scintillation counter.

[3] = target: HEK 293 cells overexpressing human Kv1.3 (Homo sapiens, UniProt P22001); assay: Immunohistochemistry binding to HEK 293 cells overexpressing human Kv1.3; conditions: 5 μg/ml
Chain of HEK 293 cells overexpressing human Kv1.3 (P22001 whole entry): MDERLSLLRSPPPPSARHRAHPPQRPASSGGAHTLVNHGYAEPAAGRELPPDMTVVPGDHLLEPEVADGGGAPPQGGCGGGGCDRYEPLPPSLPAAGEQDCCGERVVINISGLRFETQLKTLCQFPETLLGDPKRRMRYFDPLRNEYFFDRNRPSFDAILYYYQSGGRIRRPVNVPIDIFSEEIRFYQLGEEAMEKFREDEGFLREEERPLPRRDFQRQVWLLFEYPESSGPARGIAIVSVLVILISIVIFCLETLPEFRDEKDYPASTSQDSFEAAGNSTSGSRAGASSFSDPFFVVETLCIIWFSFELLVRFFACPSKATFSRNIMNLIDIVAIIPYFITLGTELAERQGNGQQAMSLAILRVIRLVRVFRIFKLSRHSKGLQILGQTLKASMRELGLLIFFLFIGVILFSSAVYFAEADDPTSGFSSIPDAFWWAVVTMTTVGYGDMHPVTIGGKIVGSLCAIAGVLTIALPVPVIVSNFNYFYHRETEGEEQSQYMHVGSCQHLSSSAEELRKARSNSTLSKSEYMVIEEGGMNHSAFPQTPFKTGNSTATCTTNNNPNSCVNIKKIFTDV
Description: Immunohistochemistry analysis of Fc-L10-ShK[1-35] binding to HEK 293 cells overexpressing human Kv1.3. HEK 293 cells overexpressing human Kv1.3 (HEK Kv1.3) were obtained from BioFocus plc (Cambridge, UK) and maintained per manufacturer's recommendation. The parental HEK 293 cell line was used as a control. Cells were plated on Poly-D-Lysine 24 well plates (#35-4414; Becton-Dickinson, Bedford, Mass.) and allowed to grow to approximately 70% confluence. HEK KV1.3 were plated at 0.5×10e5 cells/well in 1 ml/well of medium. HEK 293 cells were plated at a density of 1.5×10e5 cells/well in 1 ml/well of medium. Before staining, cells were fixed with formalin (Sigma HT50-1-1 Formalin solution, diluted 1:1 with PBS/0.5% BSA before use) by removing cell growth medium, adding 0.2 ml/well formalin solution and incubating at room temperature for ten minutes. Cells were stained by incubating with 0.2 ml/well of 5 μg/ml Fc-L10-ShK[1-35] in PBS/BSA for 30′ at room temperature. Fc-L10-ShK[1-35] was aspirated and then the cells were washed one time with PBS/0.5% BSA. Detection antibody (Goat F(ab)2 anti-human IgG-phycoerythrin; Southern Biotech Associates, Birmingham, Ala.) was added to the wells at 5 μg/ml in PBS/0.5% BSA and incubated for 30′ at room temperature. Wash cells once with PBS/0.5% BSA and examine using confocal microscopy (LSM 510 Meta Confocal Microscope; Carl Zeiss AG, Germany). […]

[4] = tested on: IFNγ production from αCD3 and αCD28 antibody stimulated human PBMCs; type: cell-based
[5] = tested on: IL-2 production from PMA and αCD3 antibody stimulated human PBMCs; type: cell-based
[6] = tested on: IFNγ production from PMA and αCD3 antibody stimulated human PBMCs; type: cell-based
[7] = tested on: CD40L on CD4+ T cells in human whole blood; type: cell-based
human Kv1.3 channel = human Kv1.3 channel (Homo sapiens, UniProt P22001); type: cell-based
Chain of human Kv1.3 channel (P22001 whole entry): as above

[8] = tested on: IL-2 production from αCD3 and αCD28 antibody stimulated human PBMCs; type: cell-based
[9] = tested on: IL-2R on CD4+ T cells in human whole blood; type: cell-based
human Kv1.1 = target: T1, human Kv1.1 (Homo sapiens, UniProt Q09470); type: cell-based
T1 construct: expressed in transfected cells; host or cells: HEK293
T1 sequence (Q09470 whole entry): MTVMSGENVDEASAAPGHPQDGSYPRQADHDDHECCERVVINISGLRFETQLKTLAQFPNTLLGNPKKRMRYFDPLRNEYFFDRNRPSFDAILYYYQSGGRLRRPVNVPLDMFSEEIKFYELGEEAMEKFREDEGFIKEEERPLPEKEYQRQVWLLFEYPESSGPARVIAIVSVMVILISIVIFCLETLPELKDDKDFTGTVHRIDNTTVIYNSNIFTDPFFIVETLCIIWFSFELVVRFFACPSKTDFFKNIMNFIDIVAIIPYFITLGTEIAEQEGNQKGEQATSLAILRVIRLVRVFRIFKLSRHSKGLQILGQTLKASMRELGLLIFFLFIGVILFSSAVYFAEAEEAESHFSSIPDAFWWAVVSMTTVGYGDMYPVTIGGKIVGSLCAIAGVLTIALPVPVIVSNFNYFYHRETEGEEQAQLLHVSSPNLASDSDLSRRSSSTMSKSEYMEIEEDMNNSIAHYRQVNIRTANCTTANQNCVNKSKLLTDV

[10] = tested on: thapsigargin-induced IFN-g production in human whole blood; type: cell-based
[11] = tested on: thapsigargin-induced IL-2 production in human whole blood
[12] = rat, in vivo, iv
[13] = tested on: adoptive transfer EAE model of multiple sclerosis; conditions: rat, in vivo, sc

Chain of fixed HEK 293 cells stably transfected with human Kv1.3 (P22001 whole entry): as the sequence (P22001 whole entry) above

| Molecule | inhibition of IFNg production (in words) [4] | inhibition of IL-2 production (in words) [5] | inhibition of IFNγ production (in words) [6] | thapsigargin-induced upregulation of CD40L on T cells (in words) [7] | block of human Kv1.3 current (in words) (human Kv1.3 channel) | inhibition of IL-2 production (in words) [8] | thapsigargin-induced upregulation of IL-2R on T cells (in words) [9] | thapsigargin-induced IFN-g production in human whole blood (in words) [10] | further results |
| --- | --- | --- | --- | --- | --- | --- | --- | --- | --- |
| Fc-L10-ShK[1-35]: Fc region of human IgG1 fused in-frame to L10 linker and a monomer of ShK[1-35] | nearly complete inhibition | complete inhibition of the response | complete inhibition of the response | suppressed | potently blocked human Kv1.3 | nearly complete inhibition | suppressed | – | binding to fixed cells that overexpress Kv1.3 (ELISA) [1]: dose-dependent increase in the peptibody binding to fixed cells that overexpress Kv1.3; inhibition of T cell proliferation (in words) [2]: potently inhibits proliferation of T cells in a dose-dependent manner; binding to Kv1.3 overexpressing HEK 293 cells (staining) [3]: binds to Kv1.3 overexpressing HEK 293 cells but shows little binding to untransfected cells |
| Fc-L10-OSK1[E16K,K20D]: Fc-L10-OSK1 with E16K and K20D substitutions | – | – | – | – | – | – | – | – | blocking activity against Kv1.1 (in words) (human Kv1.1): removed the blocking activity against Kv1.1; difference in Kv1.3 potency compared to Fc-L10-OSK1 (human Kv1.3 channel): 1.3 fold; fold less potent than the synthetic OSK1 toxin peptide (Kv1.3) (human Kv1.3 channel): approximately 6 fold |
| Fc-L10-ShK[2-35]: human IgG1 Fc fused via 10 amino acid linker to ShK[2-35] | – | – | – | blocked | potently blocks human Kv1.3 current | – | blocked | suppressed; also recorded: blocked | – |
| IbTx: BKCa channel inhibitor iberiotoxin, purchased from Bachem (QFTDVDCSVSKECWSVCKDLFGVDRGKCMGKKCRCYQ; Definition of Artificial Sequence: Synthetic peptide) [reference compound] | – | – | – | no significant activity | – | – | no significant activity | no significant activity | thapsigargin-induced IL-2 production in human whole blood (in words) [11]: no significant activity |
| CC[C@H](C)[C@@H]1NC(=O)[C@@H](NC(=O)[C@H](CO)NC(=O)[C@@H](N)CCCNC(=N)N)CSSC[C@@H](C(=O)O)NC(=O)[C@H]([C@@H](C)O)NC(=O)CNC(=O)[C@@H]2CSSC[C@@H]3NC(=O)[C@H](CCC(N)=O)NC(=O)[C@H](Cc4ccccc4)NC(=O)[C@H](C)NC(=O)[C@H]([C@@H](C)O)NC(=O)[C@H](CSSC[C@H](NC(=O)[C@H](Cc4ccccc4)NC(=O)[C@H](CO)NC(=O)[C@H](CC(C)C)NC(=O)[C@H](CCCNC(=N)N)NC(=O)[C@H](Cc4ccc(O)cc4)NC(=O)[C@H](CCCCN)NC(=O)[C@H](CCSC)NC(=O)[C@H](CO)NC(=O)[C@H](Cc4cnc[nH]4)NC(=O)[C@H](CCCCN)NC3=O)C(=O)N[C@@H](CCCNC(=N)N)C(=O)N[C@@H](CCCCN)C(=O)N[C@@H]([C@@H](C)O)C(=O)N2)NC(=O)[C@H](CCCNC(=N)N)NC(=O)[C@H](CO)NC(=O)[C@H](CCCCN)NC(=O)[C@@H]2CCCN2C(=O)[C@H]([C@@H](C)CC)NC(=O)[C@H]([C@@H](C)O)NC(=O)[C@H](CC(=O)O)NC1=O [ShK, reference compound] | only partial inhibition | only a partial inhibition | only a partial inhibition | suppressed | – | only partial inhibition | suppressed | suppressed | time of significant suppression of Kv1.3 current (<70 POC) by 5% serum Test solutions [12]: ≤ 1 h; average body weight lost [13]: 30 g; disease severity and survival (in words) [13]: developed severe disease and died; onset of disease [13]: 4 days |
| L2-6H-L3-CH2-L10-OsK1 (1-38) (protein) MGGHHHHHHGGGPSVFLFPPKPKDTLMISRTPEVTCVVVDVSHEDPEVKFNWYVDGVEVHNAKTKPREEQYNSTYRVVSVLTVLHQDWLNGKEYKCKVSNKALPAPIEKTISGGGGSGGGGSGVIINVKCKISRQCLEPCKKAGMRFGKCMNGKCHCTPK | – | – | – | – | – | – | – | – | IC50 ([11]; read-out: WB/IL-2 (IC50)): 38.5 nM; IC50 ([10]; read-out: WB/IFNg (IC50)): 55.2 nM |
